Measured values: patent publication US8518882B2, “Methods and compositions for ameliorating or inhibiting decline in memory or intelligence or improving same” (priority 1998, dated 2013)

How the values were obtained:
gerbils [1] = assay: Radial arm maze food pellet learning assay in gerbils; type: in vivo; settings: gerbils, 0.1, 0.5 or 2.5% UMP chow for three weeks
Procedure: Male young adult gerbils fed control or UMP-containing chow (0, 0.1, 0.5 or 2.5%) ad lib for three weeks were tested in a radial arm maze, consisting of a central chamber with four branches primed with a small food pellet at the end of each. Before testing, animals were fasted overnight; each animal was then placed in the central chamber and allowed up to 180 seconds to find all of the pellets. A shorter time required to find the pellets is indicative of improved learning and spatial memory.

neurofilament-M (NF-M) = assay: Western blot of NF-M in striatum of aged rats on UMP diet; type: in vivo
Procedure: Data were represented according to UMP treatment of six to sixteen measurements each group (means±S.E.M.). One-way ANOVA with Turkey's HSD post hoc tests were used to compare the difference among the treatments the Newman-Keuls multiple range test was used for the data in FIG. 13.
Striatal tissues were placed in Eppendorf tubes containing 200 μl lysis buffer (60 mM Tris-HCl, 4% SDS, 20% glycerol, 1 mM dithiothreitol, 1 mM AEBSF, 8 μM aprotinin, 500 μM bestatin, 15 μM E64, 200 μM leupeptin, 10 μM pepstatin A). The samples were sonicated, boiled (10 min), and centrifuged (14,000 g for 1 min at room temperature) The supernatant fluid was transferred to a clean tube, and total protein content was determined using the Bicinchoninic Acid assay (Sigma, St. Louis, Mo.).
Equal amounts of protein (40 μg protein/lane) were loaded for sodium dodecyl sulfate-polyacrylamide gel electrophoresis (4-15% SDS PAGE; Bio-Rad, Hercules, Calif.). Prior to gel electrophoresis, bromphenol blue solution (0.07%) was added to each sample. Proteins were separated, transferred onto polyvinylidene difluoride (PVDF) membranes (Immobilon-P, Millipore), and blocked with 5% bovine serum albumin (Tris-buffered saline/0.15% Tween 20) for 1 h. After 3 10 min rinses in Tris-buffered saline (TBST), blots were incubated in TBST with various antibodies against the proteins of interest, including NF-70, NF-M (1: 2000, 1: 5000, respectively; Calbiochem, La Jolla, Calif.) at 4° C. overnight on an orbital shaker. […] Films were digitized using a Supervista S-12 scanner with a transparency adapter (UMAX Technologies, Freemont, Calif.). Analysis was performed using the public domain NIH Image program (NIH V.1.61).

EC and IC rats [2] = assay: Visible platform water maze task in EC and IC rats; type: in vivo, Sprague Dawley rats; settings: UMP-supplemented diet
Source text: On each trial the animal was placed into the tank facing the wall at one of four designated start points (N, S, E, and W) and allowed to escape onto the visibly cued platform. A different starting point was used on each trial such that each starting point was used each day. In addition, the visible escape platform was placed in a different quadrant on each trial such that each of the four quadrants contained the escape platform once each day. […] After mounting the platform, rats remained on the platform for 20 sec. Following each trial, animals were removed from the maze and placed in a holding cage for a 30-sec ITI.

[3] = test system: CDP-choline levels in the brain; assay: Brain CDP-choline levels after oral UMP in gerbils; type: in vivo; settings: UMP 1 mmole/kg by gavage, for 30 min, r=0.98, p<0.02
Procedure: Data was pooled from three experiments, with group sizes ranging from 5 to 16 animals. Male gerbils (60-80 g) were given UMP (1 mmole/kg body weight) by gavage and sacrificed at the indicated times. After brain homogenization, protein precipitation, and lyophilization as described for Example 3, samples were analyzed by HPLC-UV.
Brain tissue or cells was dissolved in methanol/chloroform (1:2 vol/vol), centrifuged, and the aqueous phase was dried under vacuum, resuspended in 100-200 μL water and separated by HPLC on an ion-exchange column (Alltech Hypersil APS-2, 5 μM, 250×4.6 mm). CDP-choline was eluted with a linear gradient of NaH2PO4 buffers A (1.75 mM NaH2PO4, pH 2.9) and B (500 mM, pH 4.5), which allowed resolution of CDP-choline from closely co-eluting substances such as UMP over 40 min. The retention time for CDP-choline was 9.5 min. Individual nucleotide peaks were detected by UV absorption at […], and were identified by comparison with the positions of authentic standards, as well as by the addition of nucleotide standards to selected samples.

[4] = Body weight of aged rats on UMP diet; settings: 2.5% UMP·2Na+ diet, 0-6 weeks
Source text: Male middle aged Fischer 344 rats, 22-24 months old at the time of doing microdialysis, were obtained from National Institute on Aging (Harlan Sprague-Dawley, Indianapolis, Ind.). Rats were housed individually under standard husbandry conditions and exposed to 12 hr light/dark cycle with food and water provided ad libitum.
Rats were acclimated to the animal facility for more than 7 days before fed a control laboratory diet (Teklad Global 16% protein rodent diet, TD.00217, Harlan Telclad, Madison, Wis.), or this diet fortified with UMP·2Na^+ (2.5%, TD.03398, UMP·2Na^+; Numico Research, the Netherlands) for 6 weeks.
Rats were not fed with the research diet until at least 7 days later after their arrival. They were weighed at the time of beginning feeding (t=0), as well as 1, 2, 4, 6 weeks later. At time 0, rats were randomly assigned into two groups.

EC and IC rats [5] = assay: Hidden platform water maze task and probe test in EC and IC rats; type: in vivo, Sprague Dawley rats; settings: 0.1% UMP diet
Procedure: Behavioral training was carried out between 10:00 AM-2:00 PM, in a blinded manner. […] A different starting point was used on each trial such that each starting point was used once each day. […] After mounting the platform, rats remained on the platform for 20 seconds. Following each trial, animals were removed from the maze and placed in a holding cage for a 30 second inter-trial interval (ITI). The latency to mount the escape platform was used as a measure of task acquisition.
For this, the platform was removed and the swim path and time spent searching in the quadrant of the pool that previously contained the platform were measured over 60 s. This provides a measurement for the retention of spatial memory and indicates whether a spatial strategy was used during hidden platform training.

Aging rats = assay: Morris water maze in aging rats on UMP diet; type: in vivo; settings: 2.5% diet for six weeks
Source text: Aging rats (18 months, 500 g) were fed a control diet or a diet containing 2.5% UMP diets for six weeks. They were then shown a hidden platform in a six-foot diameter pool of water, placed somewhere in each of the four quadrants of the pool in turn, and were allowed 90 seconds in each trial to attempt to relocate the platform by swimming, and the swimming time “mean escape latency” recorded. The set of four trials was repeated on each of four consecutive days. The platform was in the same place each day. This test, known as the Morris water maze, is an indicator of spatial memory.

gerbils [6] = assay: Working memory and reference memory assay in gerbils; type: in vivo; settings: 0.1% UMP diet for four weeks
Source text: Groups of ten gerbils fed control or 0.1% UMP diet for four weeks and trained to successfully find all of the food pellets as described above were then given a modified test in which only two arms of the maze (but always the same two) contained food pellet rewards. In this test, a working memory error is one in which a gerbil revisits an arm from which it has already taken the pellet that day.

O=c1ccn([C@@H]2O[C@H](COP(=O)([O-])[O-])[C@@H](O)[C@H]2O)c(=O)[nH]1.[Na+].[Na+] [UMP, uridine-5′-monophosphate disodium]
Time required to find the pellets (gerbils [1]): reduced the time required for gerbils to find the pellet in a dose-dependent manner
NF-M level compared to control group (neurofilament-M (NF-M); UMP diet 1 week): did not increase
NF-M level, of control values (neurofilament-M (NF-M); UMP diet 6 weeks, striatum, p<0.01): 221±34%
NF-M level in striatum, of control values (second statement) (neurofilament-M (NF-M); feeding time not given): 221±34%
Striatal-based (stimulus-response) memory, visible platform task (EC and IC rats [2]): little or no effect
Brain CDP-choline levels [3]: rose significantly in a linear fashion
Body weight [4]: neither UMP-diet (vs. control) nor UMP time interaction affected body weight
Rate of acquisition of hidden platform task (EC and IC rats [5]; EC rats, vs EC-CONT, P<0.09): acquired the task at a faster rate
Rate of acquisition of hidden platform task (EC and IC rats [5]; IC rats, vs IC-CONT, P<0.05): acquired the task at a significantly faster rate
Time in correct quadrant, 60 s probe test (EC and IC rats [5]; IC rats, vs IC-CONT, p<0.01): spent significantly more time in the correct quadrant
Time required to reach the platform (mean escape latency) (Aging rats): statistically significant reduction in the time required to reach the location of the platform
Reference memory errors (gerbils [6]): reduced numbers
Working memory errors (gerbils [6]): reduced numbers
